According to PubChem BioAssay AID1259407 (Chemical Carcinogenesis Research Information System (CCRIS), 2018):
Calls of active or inactive are those of the source. No rule for the calls is given here.

System: CCRIS mutagenicity, Ames/micronucleus/aberration tests
Assay: CCRIS mutagenicity studies
[1] = Test System: AMES SALMONELLA TYPHIMURIUM, Strain/Indicator: TA97, Metabolic Activation: NONE, Method: STANDARD PLATE
[2] = Test System: AMES SALMONELLA TYPHIMURIUM, Strain/Indicator: TA98, Metabolic Activation: NONE, Method: PREINCUBATION
[3] = Test System: AMES SALMONELLA TYPHIMURIUM, Strain/Indicator: TA98, Metabolic Activation: NONE, Method: STANDARD PLATE
[4] = Test System: AMES SALMONELLA TYPHIMURIUM, Strain/Indicator: TA100, Metabolic Activation: NONE, Method: PREINCUBATION
[5] = Test System: AMES SALMONELLA TYPHIMURIUM, Strain/Indicator: TA100, Metabolic Activation: NONE, Method: STANDARD PLATE
[6] = Test System: AMES SALMONELLA TYPHIMURIUM, Strain/Indicator: TA1535, Metabolic Activation: NONE, Method: PREINCUBATION
[7] = Test System: AMES SALMONELLA TYPHIMURIUM, Strain/Indicator: TA1537, Metabolic Activation: NONE, Method: PREINCUBATION

COc1ccc(C(=O)N2CCN(c3ccc4c(c3)CCC(=O)N4)CC2)cc1OC
mutagenic call [1]: inactive; negative
mutagenic call (Test System: AMES SALMONELLA TYPHIMURIUM, Strain/Indicator: TA97, Metabolic Activation: S-9, Method: STANDARD PLATE): inactive; negative
mutagenic call [2]: inactive; negative
mutagenic call [3]: inactive; negative
mutagenic call (Test System: AMES SALMONELLA TYPHIMURIUM, Strain/Indicator: TA98, Metabolic Activation: RAT, LIVER, S-9, Method: PREINCUBATION): inactive; negative
mutagenic call (Test System: AMES SALMONELLA TYPHIMURIUM, Strain/Indicator: TA98, Metabolic Activation: S-9, Method: STANDARD PLATE): inactive; negative
mutagenic call [4]: inactive; negative
mutagenic call [5]: inactive; negative
mutagenic call (Test System: AMES SALMONELLA TYPHIMURIUM, Strain/Indicator: TA100, Metabolic Activation: RAT, LIVER, S-9, Method: PREINCUBATION): inactive; negative
mutagenic call (Test System: AMES SALMONELLA TYPHIMURIUM, Strain/Indicator: TA102, Metabolic Activation: NONE, Method: STANDARD PLATE): inactive; negative
mutagenic call (Test System: AMES SALMONELLA TYPHIMURIUM, Strain/Indicator: TA102, Metabolic Activation: S-9, Method: STANDARD PLATE): inactive; negative
mutagenic call [6]: inactive; negative
mutagenic call (Test System: AMES SALMONELLA TYPHIMURIUM, Strain/Indicator: TA1535, Metabolic Activation: RAT, LIVER, S-9, Method: PREINCUBATION): inactive; negative
mutagenic call [7]: inactive; negative
mutagenic call (Test System: AMES SALMONELLA TYPHIMURIUM, Strain/Indicator: TA1537, Metabolic Activation: RAT, LIVER, S-9, Method: PREINCUBATION): inactive; negative
mutagenic call (Test System: AMES SALMONELLA TYPHIMURIUM, Strain/Indicator: TA1538, Metabolic Activation: NONE, Method: PREINCUBATION): inactive; negative
mutagenic call (Test System: AMES SALMONELLA TYPHIMURIUM, Strain/Indicator: TA1538, Metabolic Activation: RAT, LIVER, S-9, Method: PREINCUBATION): inactive; negative
mutagenic call (Test System: E. COLI, Strain/Indicator: WP2 UVRA, Metabolic Activation: NONE, Method: PREINCUBATION): inactive; negative
mutagenic call (Test System: E. COLI, Strain/Indicator: WP2 UVRA, Metabolic Activation: RAT, LIVER, S-9, Method: PREINCUBATION): inactive; negative

Cl/C=C/Cl
mutagenic call (End Point: IN VITRO CHROMOSOMAL ABERRATIONS, Test System: CHINESE HAMSTER LUNG (CHL), Metabolic Activation: NONE): inactive; negative
mutagenic call (End Point: IN VITRO CHROMOSOMAL ABERRATIONS, Test System: CHINESE HAMSTER LUNG (CHL), Metabolic Activation: RAT, LIVER, S-9, KC-400): inactive; negative
mutagenic call [1]: inactive; negative
mutagenic call (Test System: AMES SALMONELLA TYPHIMURIUM, Strain/Indicator: TA97, Metabolic Activation: RAT, LIVER, S-9, AROCLOR 1254, Method: STANDARD PLATE): active; positive
mutagenic call (Test System: AMES SALMONELLA TYPHIMURIUM, Strain/Indicator: TA98, Metabolic Activation: HAMSTER LIVER S-9, AROCLOR 1254 (10%), Method: PREINCUBATION): inactive; negative
mutagenic call (Test System: AMES SALMONELLA TYPHIMURIUM, Strain/Indicator: TA98, Metabolic Activation: HAMSTER, LIVER, S-9, AROCLOR 1254 (10%), Method: PREINCUBATION): inactive; negative
mutagenic call [2]: inactive; negative
mutagenic call [3]: inactive; negative
mutagenic call (Test System: AMES SALMONELLA TYPHIMURIUM, Strain/Indicator: TA98, Metabolic Activation: RAT LIVER S-9, AROCLOR 1254 (10%), Method: PREINCUBATION): inactive; negative
mutagenic call (Test System: AMES SALMONELLA TYPHIMURIUM, Strain/Indicator: TA98, Metabolic Activation: RAT, LIVER, S-9, AROCLOR 1254 (10%), Method: PREINCUBATION): inactive; negative
mutagenic call (Test System: AMES SALMONELLA TYPHIMURIUM, Strain/Indicator: TA98, Metabolic Activation: RAT, LIVER, S-9, AROCLOR 1254, Method: STANDARD PLATE): active; positive
mutagenic call (Test System: AMES SALMONELLA TYPHIMURIUM, Strain/Indicator: TA100, Metabolic Activation: HAMSTER LIVER S-9, AROCLOR 1254 (10%), Method: PREINCUBATION): inactive; negative
mutagenic call (Test System: AMES SALMONELLA TYPHIMURIUM, Strain/Indicator: TA100, Metabolic Activation: HAMSTER, LIVER, S-9, AROCLOR 1254 (10%), Method: PREINCUBATION): inactive; negative
mutagenic call [4]: inactive; negative
mutagenic call [5]: active; positive
mutagenic call (Test System: AMES SALMONELLA TYPHIMURIUM, Strain/Indicator: TA100, Metabolic Activation: RAT LIVER S-9, AROCLOR 1254 (10%), Method: PREINCUBATION): inactive; negative
mutagenic call (Test System: AMES SALMONELLA TYPHIMURIUM, Strain/Indicator: TA100, Metabolic Activation: RAT, LIVER, S-9, AROCLOR 1254 (10%), Method: PREINCUBATION): inactive; negative
mutagenic call (Test System: AMES SALMONELLA TYPHIMURIUM, Strain/Indicator: TA100, Metabolic Activation: RAT, LIVER, S-9, AROCLOR 1254, Method: STANDARD PLATE): active; positive
mutagenic call (Test System: AMES SALMONELLA TYPHIMURIUM, Strain/Indicator: TA104, Metabolic Activation: NONE, Method: STANDARD PLATE): inactive; negative
mutagenic call (Test System: AMES SALMONELLA TYPHIMURIUM, Strain/Indicator: TA104, Metabolic Activation: RAT, LIVER, S-9, AROCLOR 1254, Method: STANDARD PLATE): inactive; negative
mutagenic call (Test System: AMES SALMONELLA TYPHIMURIUM, Strain/Indicator: TA1535, Metabolic Activation: HAMSTER LIVER S-9, AROCLOR 1254 (10%), Method: PREINCUBATION): inactive; negative
mutagenic call (Test System: AMES SALMONELLA TYPHIMURIUM, Strain/Indicator: TA1535, Metabolic Activation: HAMSTER, LIVER, S-9, AROCLOR 1254 (10%), Method: PREINCUBATION): inactive; negative
mutagenic call [6]: inactive; negative
mutagenic call (Test System: AMES SALMONELLA TYPHIMURIUM, Strain/Indicator: TA1535, Metabolic Activation: RAT LIVER S-9, AROCLOR 1254 (10%), Method: PREINCUBATION): inactive; negative
mutagenic call (Test System: AMES SALMONELLA TYPHIMURIUM, Strain/Indicator: TA1535, Metabolic Activation: RAT, LIVER, S-9, AROCLOR 1254 (10%), Method: PREINCUBATION): inactive; negative
mutagenic call (Test System: AMES SALMONELLA TYPHIMURIUM, Strain/Indicator: TA1537, Metabolic Activation: HAMSTER LIVER S-9, AROCLOR 1254 (10%), Method: PREINCUBATION): inactive; negative
mutagenic call (Test System: AMES SALMONELLA TYPHIMURIUM, Strain/Indicator: TA1537, Metabolic Activation: HAMSTER, LIVER, S-9, AROCLOR 1254 (10%), Method: PREINCUBATION): inactive; negative
mutagenic call [7]: inactive; negative
mutagenic call (Test System: AMES SALMONELLA TYPHIMURIUM, Strain/Indicator: TA1537, Metabolic Activation: RAT LIVER S-9, AROCLOR 1254 (10%), Method: PREINCUBATION): inactive; negative
mutagenic call (Test System: AMES SALMONELLA TYPHIMURIUM, Strain/Indicator: TA1537, Metabolic Activation: RAT, LIVER, S-9, AROCLOR 1254 (10%), Method: PREINCUBATION): inactive; negative

ClC(Cl)(Cl)c1ccccc1
mutagenic call (Test System: AMES SALMONELLA TYPHIMURIUM, Strain/Indicator: TA98, Metabolic Activation: HAMSTER, LIVER, S-9, AROCLOR 1254 (30%), Method: PREINCUBATION): active; positive
mutagenic call [2]: inactive; negative
mutagenic call (Test System: AMES SALMONELLA TYPHIMURIUM, Strain/Indicator: TA98, Metabolic Activation: RAT, LIVER, S-9, AROCLOR 1254 (30%), Method: PREINCUBATION): active; positive
mutagenic call (Test System: AMES SALMONELLA TYPHIMURIUM, Strain/Indicator: TA98, Metabolic Activation: RAT, LIVER, S-9, AROCLOR 1254, Method: PREINCUBATION): active; positive
mutagenic call (Test System: AMES SALMONELLA TYPHIMURIUM, Strain/Indicator: TA100, Metabolic Activation: HAMSTER, LIVER, S-9, AROCLOR 1254 (30%), Method: PREINCUBATION): active; positive
mutagenic call [4]: active; positive
mutagenic call (Test System: AMES SALMONELLA TYPHIMURIUM, Strain/Indicator: TA100, Metabolic Activation: RAT, LIVER, S-9, AROCLOR 1254 (30%), Method: PREINCUBATION): active; positive
mutagenic call (Test System: AMES SALMONELLA TYPHIMURIUM, Strain/Indicator: TA100, Metabolic Activation: RAT, LIVER, S-9, AROCLOR 1254, Method: PREINCUBATION): active; positive
mutagenic call (Test System: AMES SALMONELLA TYPHIMURIUM, Strain/Indicator: TA1535, Metabolic Activation: RAT, LIVER, S-9, AROCLOR 1254, Method: PREINCUBATION): active; positive
